According to patent US20130203718A1 (priority 2010, published 2013):

Tests used:
[1] = target: T1, hPRB and SMRT (Homo sapiens, UniProt P06401); assay: Mammalian two hybrid assay, recruitment of co-repressor SMRT by hPRB; assay type: cell-based; conditions: HEK293T, FIGS. 13 and 14
T1 construct: expressed in transfected cells; host or cells: HEK 293T
T1 sequence (P06401 1-933): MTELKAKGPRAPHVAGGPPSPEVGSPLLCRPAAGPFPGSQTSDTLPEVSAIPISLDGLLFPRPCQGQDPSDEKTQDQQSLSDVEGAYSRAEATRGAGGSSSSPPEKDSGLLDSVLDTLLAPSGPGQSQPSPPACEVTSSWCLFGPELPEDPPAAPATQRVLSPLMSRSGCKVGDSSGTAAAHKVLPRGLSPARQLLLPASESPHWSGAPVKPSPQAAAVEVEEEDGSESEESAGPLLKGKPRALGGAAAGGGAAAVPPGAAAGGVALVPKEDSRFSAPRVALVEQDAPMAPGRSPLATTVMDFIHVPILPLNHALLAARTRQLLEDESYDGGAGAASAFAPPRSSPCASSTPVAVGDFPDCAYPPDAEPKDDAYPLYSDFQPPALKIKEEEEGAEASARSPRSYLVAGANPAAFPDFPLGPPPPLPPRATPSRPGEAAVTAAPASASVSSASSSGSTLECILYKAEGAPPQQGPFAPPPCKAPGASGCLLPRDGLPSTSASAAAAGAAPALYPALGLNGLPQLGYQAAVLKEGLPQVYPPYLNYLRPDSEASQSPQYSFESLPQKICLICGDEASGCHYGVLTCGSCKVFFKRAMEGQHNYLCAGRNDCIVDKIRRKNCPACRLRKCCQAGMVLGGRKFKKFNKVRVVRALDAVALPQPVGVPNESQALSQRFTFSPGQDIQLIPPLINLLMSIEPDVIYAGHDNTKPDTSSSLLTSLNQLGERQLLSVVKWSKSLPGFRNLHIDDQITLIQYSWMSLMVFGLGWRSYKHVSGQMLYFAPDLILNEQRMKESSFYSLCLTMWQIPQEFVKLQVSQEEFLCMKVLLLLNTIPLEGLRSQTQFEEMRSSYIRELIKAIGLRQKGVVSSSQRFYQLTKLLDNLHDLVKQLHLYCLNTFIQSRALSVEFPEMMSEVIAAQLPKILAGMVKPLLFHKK
Procedure: Mammalian Two Hybrid Assays.
To investigate whether hPR was able to recruit transcriptional corepressors upon APRn binding, two hybrid assays have been performed in HEK 293T cells. Cell transfection were carried out according to the protocol used for the PR transactivation assays, with 1 μg of pGAL4-SMRT or pGAL4-NcoR, 2.5 μg of the PR expression vector pV16-PR and 5 μg of the reporter pG5-luc. The plasmid pGAL4-SMRT and pGAL4-NcoR, provided by P. Balaguer, encode the fusion protein between the GAL4 DNA-binding domain (GAL4DBD) and the receptor interacting domain (RID) of the corepressor […], respectively. The expression vector pV16PR encodes the VP16 activation domain of herpes simplex virus fused to the entire hPR and pG5-luc, provided by P. Fuller, encodes the luciferase gene driven by a GAL4-responsive promoter. […] Cell transfection were carried out according to the PR transactivation assays, by using 2 μg of pM-TIF2/Nter-RID or […], 2 μg of the expression vector pV16PR and 5 μg of the reporter pG5luc. The plasmids pM-TIF2/Nter-RID encodes the fusion proteins between the GAL4 DBD and the 1-867 TIF2 sequence corresponding to the Nter and RID domains. The plasmids pMTIF2-Nter encodes the fusion proteins between the GAL4 DBD and the 1-623 TIF2 sequence corresponding to the Nter domain. After 16 h incubation, the transfected cells were washed with PBS containing 2.5 mM EDTA, trypsinized and replated in 24-well plates. […] Cells were lysed and the luciferase and activities were quantified by using a Mithras reader microplates (Berthold).
Both agonist- and antagonist-bound PR regulate gene transcription with the assistance of transcriptional co-repressors (NCoR, SMRT) or co-activators (namely, TIF-2). To characterize the mechanism by which APRn inactivate hPRB, the capacity of hPRB to recruit transcriptional co-regulators upon APRn binding has been evaluated. […]

SMILES: CC(=O)[C@H]1CC[C@H]2[C@@H]3CC=C4C[C@@H](F)CC[C@]4(C)[C@H]3CC[C@]12C [APR-16, 3β-Fluoropregn-5-en-20-one]
- recruitment of co-repressor SMRT by hPRB upon ligand binding [1]: unable to recruit
- melting point: 166 to 167 °C

SMILES: CC#C[C@]1(O)CCC2C3CC[C@H]4CCCC[C@]4(C)C3CC[C@@]21C (stereo partly drawn) [APR-42, 17α-(1-Propynyl)-5α-androstan-17β-ol]
- melting point: 150 to 151 °C

SMILES: CC#C[C@]1(O)CCC2C3CC[C@H]4C[C@@H](F)CC[C@]4(C)C3CC[C@@]21C (stereo partly drawn) [APR-43, 3β-Fluoro-17α-(1-propynyl)-5α-androstan-17β-ol]
- melting point: 139 to 140 °C

SMILES: C[C@]12CCC3C(CC=C4C[C@@H](F)CC[C@@H]43)C1CCC2=O (stereo partly drawn) [APR-47, 3β-Fluoro-19-nor-androst-5-en-17-one]
- recruitment of co-repressor SMRT by hPRB upon ligand binding [1]: unable to recruit
- melting point: 102 to 103 °C

SMILES: CC#C[C@]1(O)CCC2C3CC=C4C[C@@H](F)CC[C@@H]4C3CC[C@@]21C (stereo partly drawn) [APR-51, 3β-Fluoro-17α-(1-propynyl)-19-nor-androst-5-en-17β-ol]
- melting point: 72 to 73 °C

SMILES: CC#C[C@]1(O)CCC2C3CC[C@H]4CCCC[C@@H]4C3CC[C@@]21C (stereo partly drawn) [APR-54, 17α-(1-Propynyl)-19-nor-5-androstan-17β-ol]
- recruitment of co-repressor SMRT by hPRB upon ligand binding [1]: unable to recruit
